# From US20150044136A1, “Ophthalmological treatment for michobial infections” (priority 2013, published 2015)
# Test system: L929 cells
# Assay: Cytotoxicity evaluation, agar overlay, ASTM F895-84 / ISO 10993-5
# Assay type: cell-based
# Design: key to Zone Description Following 48 Hour Incubation (size of zone of lysis): 0: No detectable zone around or under specimen; 1: Zone limited to area under specimen; 2: Zone extends less than 0.5 cm beyond specimen; 3: Zone extends 0.5 to 1.0 cm beyond specimen; 4: Zone extends greater than 1.0 cm beyond specimen but does not involve entire dish; 5: Zone involves entire dish
# Settings: L929 monolayer, replicate wells
# Procedure: ASTM F895-84 Test Method was Utilized.
# The Sample was analyzed as described in ASTM F895-84 and ISO 10993-5. Monolayers of L929 cells were grown in six 150 mm cell culture plates (Corning, USA). Following 24 hours to cell passage, the plates were over-layed with agar supplemented dMEM/FBS media as described by the ASTM method. One hundred milligrams of the provided samples was added to the center of four of the over-layed wells. One well was left undisturbed as this served as negative control. An additional well was inoculated with a 2 cm^2 piece of latex rubber. The cells were then incubated in 5% carbon dioxide at 36.5° C.±1 for 24 hours. The plates and cells were evaluated macro and microscopically for signs of malformation, degeneration, sloughing, or lysis of the cells within the zone directly beneath and surrounding the discs. Cells were then re-incubated for an additional 24 hours at the conditions described above and evaluated again. The size of the zone surrounding the inoculated area was evaluated for signs of cell growth inhibition and/cell lysis.
# Table 3 contains the numerical values describing the size of zone of lysis surrounding the inoculums as per the ASTM standards. Table 4 contains the relative numerical value describing the number of cells affected within the zone of inhibition or toxicity. Each sample observed is assigned a numerical value based on cellular degradation and/or cell death.
# Briefly, number 0=unchanged/no evident cytotoxicity; 5=complete monolayer destruction and severe cytotoxicity. The ASTM and ISO 10993-5 consider a scoring of 3 or higher as toxic.
compound,measurement,setting,value
"Oc1ccccc1 [(+) Control, Phenol]",Cell Description Following 24 Hour Incubation (condition of cells within the zone of lysis),24 Hour Incubation,5 (Greater than 80% of zone affected of zone affected)
same,Zone Description Following 24 Hour Incubation (size of zone of lysis),24 Hour Incubation,4 (Zone extends greater than 1.0 cm beyond specimen but does not involve entire dish)
same,Cell Description Following 48 Hour Incubation (condition of cells within the zone of lysis),48 Hour Incubation,5 (Greater than 80% of zone affected of zone affected)
same,Zone Description Following 48 Hour Incubation (size of zone of lysis),48 Hour Incubation,5
